# Reference: patent publication US20250375417A1, “OREXIN RECEPTOR 2 (OX2R) AGONIST FOR USE IN NARCOLEPSY TYPE 1 (NT1)” (TAKEDA PHARMACEUTICAL COMPANY LIMITED, priority 2024, published 2025)
# How the values were obtained:
# [1] = tested on: participants with NT1; assay: Weekly cataplexy rate (WCR), Phase 2 NT1 trial; type: in vivo, human
# Procedure: In some aspects of the methods described herein, the subject experiences a lower weekly cataplexy rate (WCR) after a treatment period compared to an untreated subject.
# Cataplexy events are recorded for 14 consecutive days, starting after completion of washout of any anti-cataplexy medications and completed before Day-2 are considered for WCR study entry criterion. The total number of events/week (WCR) is calculated based on the number of cataplexy episodes averaged over 2 weeks, with at least 11 out of 14 days required to calculate the WCR.
# Randomization was stratified by region. Starting on the morning of Day 1, the study drug was administered at approximately the same time each day for 8 or 12 weeks. If the participant wished to enroll in the long-term extension (LTE) study described in Example 3 but the LTE study had not started at the participant's site when the participant completed the Week 8 visit of the current study, the participant was allowed to continue in the current study for an additional 4 weeks.
# The following doses were studied: • Compound A Dose Regimen 1:0.5 mg twice daily approximately 3 hours apart. • Compound A Dose Regimen 2:2 mg twice daily approximately 3 hours apart. • Compound A Dose Regimen 3:2 mg followed by 5 mg approximately 3 hours apart. • Compound A Dose Regimen 4:7 mg once daily (QD). • Other products required for the study: Matching placebo. […]
# [2] = tested on: participants with NT1; assay: Narcolepsy Severity Scale for Clinical Trials (NSS-CT), Phase 2 NT1 trial; type: in vivo, human
# Description: Severity of NT1 symptoms can be assessed through the use of the NSS-CT. The NSS-CT is a 15-item self-administered questionnaire (total score: 0-57) that assesses the severity and consequences of the 5 major narcolepsy symptoms such as daytime sleepiness, cataplexy, hallucinations, sleep paralysis, and disrupted nighttime sleep (DNS). […] Further, the symptom number was associated with diagnosis delay, age at onset, and ESS and Beck Depression Inventory scores (Dauvilliers et al. 2020).
# Methods: An analysis of exploratory data from the study was conducted to explore disease severity in individuals with ICSD-3 confirmed NT1. Eligible participants were age 18-70 years (Japan: 16-70), with an Epworth Sleepiness Scale (ESS) score>12, and >4 partial/complete episodes of cataplexy/week. Exploratory endpoints included change from baseline to Week 8 in the narcolepsy Severity Scale for clinical trials (NSS-CT), and Clinical Global Impression (CGI) and Patient Global Impression (PGI) at Week 8. The NSS-CT, a validated, self-administered 15-item scale, evaluates the severity, frequency, and impact of five main narcolepsy symptoms (higher scores indicate more severe symptoms).
# [3] = tested on: participants with NT2; assay: Safety (TEAEs), Phase 2 NT2 trial; type: in vivo, human
# Procedure: The principal mitigation strategy for risks related to BP increase, HR increase, insomnia, and bladder events included appropriate selection of the study population; use of the inpatient clinical research unit setting and home health visits, which permitted close monitoring and rapid institution of appropriate care as needed; appropriate specified monitoring procedures; and use of experienced staff trained in study procedures. To mitigate cardiovascular risks, BP and HR were measured frequently in this study; cardiovascular effects were evaluated by using BP and HR assessments and electrocardiographic (ECG) assessments. Stopping rules for individual participants and the overall study were established. In addition, because liver function test (LFT) elevation cases have been observed in another OX2R agonist with structural similarity, LFTs (ALT, AST, GGT, and total bilirubin) were closely monitored.
# (§1) Liver function test (LFTs) (alanine aminotransferase [ALT], aspartate aminotransferase [AST], γ-glutamyl transferase [GGT], and total bilirubin) were closely monitored in this study. Stopping criteria for individual participants and the overall study, based on abnormal LFTs were established.
# Eligible participants were age 18-70 years, with Epworth Sleepiness Scale (ESS) score>12 and no other current EDS-related medical conditions. Participants were randomized 1:1:1 to daily oral Compound A 2 mg twice 3 hours apart, 2 mg then 5 mg 3 hours later, or placebo. Study endpoints included change from baseline to Week 8 in mean Sleep Onset Latency on the Maintenance of Wakefulness Test (mean SOL-MWT; primary endpoint), ESS total score, and incidence of treatment-emergent adverse events (TEAEs). Participants who completed the placebo-controlled study could enroll in a ˜2-year Long Term Extension (LTE) study. LTE TEAE data up to Jan. 25, 2024 are reported.
# [4] = tested on: participants with NT1; assay: Efficacy (SOL-MWT, ESS, WCR), LTE study interim analysis, NT1 participants; type: in vivo, human; settings: all Compound A doses, up to 6 months (FIG. 31)
# Procedure: An nPSG and MWT were conducted on Day 181 and 182, respectively. Cognitive testing were conducted at Week 26 (6 months). ESS and NSS-CT were collected monthly starting at Week 4 and then approximately every 3 months after Week 12. There were additional ESS measurements at Week 2 and in the first week after drug discontinuation. PGI-I and CGI-I were collected approximately every 3 months starting at Week 12. Other patient-reported outcome measures were administered approximately every 6 months up until Year 1.
# Participants with NT1 also completed the Cataplexy e-diary daily over 2-week periods to capture the weekly cataplexy rate before the next visit in-clinic. The Cataplexy e-diary was completed at approximately 3-month intervals during Year 1 and at 6-month intervals during Year 2.
# Participants completing either Example 1 or Example 2 with ≤3 months between parent study-end and LTE screening could enroll. Primary endpoint is the occurrence of treatment-emergent adverse events (TEAEs); secondary endpoints are change from baseline (parent study) in sleep onset latency on the Maintenance of Wakefulness Test (SOL-MWT), Epworth Sleepiness Scale (ESS) score, and weekly cataplexy rate (WCR). Participants with NT1 receive oral Compound A 0.5 mg twice 3 hours apart, 2 mg twice 3 hours apart, 2 mg then 5 mg 3 hours apart, or 7 mg once daily. […]
# [5] = Clinical studies of Compound A: drug-induced liver injury; type: in vivo
# Description: as §1
structure (smiles),measurement,setting,value
"CCS(=O)(=O)N[C@@H]1[C@H](Cc2cccc(-c3cc(F)cc(F)c3)c2F)N(C(=O)C(C)(C)O)CC1(F)F [Compound A, N-{(2S,3R)-4,4-difluoro-1-(2-hydroxy-2-methylpropanoyl)-2-[(2,3′,5′-trifluoro[1,1′-biphenyl]-3-yl)methyl]pyrrolidin-3-yl}ethanesulfonamide]",Change from baseline to Week 8 in WCR versus placebo,"[1]; 2 mg/2 mg and 2 mg/5 mg dose groups, adjusted for multiple comparisons",statistically significant changes
same,Median WCR versus placebo,[1]; twice daily dosing (FIG. 5),significantly reduced cataplexy events
same,"NSS-CT total score, LS mean change from baseline to Week 8",[2]; 0.5 mg/0.5 mg,−18.2
same,"NSS-CT total score, LS mean change from baseline to Week 8",[2]; 2 mg/2 mg,−21.0
same,"NSS-CT total score, LS mean change from baseline to Week 8",[2]; 2 mg/5 mg,−21.1
same,"NSS-CT total score, LS mean change from baseline to Week 8",[2]; 7 mg,−17.2
same,Occurrence of TEAEs,"[3]; Compound A-treated participants (28/47), 8 weeks",59.6%
same,Serious TEAEs,[3]; parent and LTE study,no serious TEAEs
same,Participants discontinued due to TEAEs,[3]; parent study (arm not stated),Two
same,"Efficacy on SOL-MWT, ESS and WCR over time",[4],maintenance of efficacy
same,Drug-induced liver injury,[5],No cases of drug-induced liver injury have been reported
